Results as given in paper PMC8795677 (Frontiers in Chemistry, 2022).
pEC50: −log10 of the molar value. Entries after “also recorded” stand apart in the source; their conditions may differ.

Key:
mGlu1 E325C mutant = target: T1, mGlu1 E325C mutant (Rattus norvegicus, UniProt P23385, E325C); assay: Fluorescent Ca2+ imaging in transfected HEK293 cells, E325C mutant; assay type: cell-based; conditions: for activation / metal selectivity of E325C mutant (Δratio): heat map: 3 μM metal ion or complex
T1 construct: expressed in transfected cells; host or cells: HEK293
T1 sequence (P23385 19-1199 E325C): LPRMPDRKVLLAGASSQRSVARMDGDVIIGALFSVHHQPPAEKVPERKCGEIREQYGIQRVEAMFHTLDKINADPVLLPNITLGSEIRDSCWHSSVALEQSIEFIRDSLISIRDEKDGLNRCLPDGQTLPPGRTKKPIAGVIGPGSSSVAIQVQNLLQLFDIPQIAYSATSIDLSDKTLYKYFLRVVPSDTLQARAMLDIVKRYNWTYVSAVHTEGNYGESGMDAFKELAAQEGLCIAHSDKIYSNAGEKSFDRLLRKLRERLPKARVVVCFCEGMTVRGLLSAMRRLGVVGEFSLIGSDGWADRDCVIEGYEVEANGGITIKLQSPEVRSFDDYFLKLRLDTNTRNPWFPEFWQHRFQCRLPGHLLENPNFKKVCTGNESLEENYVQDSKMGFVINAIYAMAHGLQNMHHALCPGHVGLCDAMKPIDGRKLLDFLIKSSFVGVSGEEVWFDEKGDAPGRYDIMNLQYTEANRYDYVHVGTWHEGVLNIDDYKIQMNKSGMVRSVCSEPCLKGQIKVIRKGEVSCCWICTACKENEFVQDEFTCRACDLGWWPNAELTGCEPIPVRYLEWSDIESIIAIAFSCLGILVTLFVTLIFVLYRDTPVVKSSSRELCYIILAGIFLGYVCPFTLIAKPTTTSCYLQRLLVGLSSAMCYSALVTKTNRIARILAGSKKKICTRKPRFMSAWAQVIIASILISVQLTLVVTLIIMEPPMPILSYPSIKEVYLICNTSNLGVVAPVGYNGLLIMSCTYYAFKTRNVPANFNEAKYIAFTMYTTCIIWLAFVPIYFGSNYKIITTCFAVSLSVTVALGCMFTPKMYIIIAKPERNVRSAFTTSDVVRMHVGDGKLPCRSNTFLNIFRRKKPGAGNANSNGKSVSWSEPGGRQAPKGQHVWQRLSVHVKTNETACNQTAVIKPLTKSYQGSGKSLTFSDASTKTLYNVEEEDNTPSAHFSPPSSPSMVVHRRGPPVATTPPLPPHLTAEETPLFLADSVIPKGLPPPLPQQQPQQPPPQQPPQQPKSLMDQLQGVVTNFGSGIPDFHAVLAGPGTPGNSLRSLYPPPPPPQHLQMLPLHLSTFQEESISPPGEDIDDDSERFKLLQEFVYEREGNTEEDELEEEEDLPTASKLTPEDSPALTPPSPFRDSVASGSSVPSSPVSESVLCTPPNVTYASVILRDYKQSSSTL

[1] = target: T2, mGlu1 V405C/D322H/D324H (CHH) mutant (Rattus norvegicus, UniProt P23385, D322H/D324H/V405C); assay: Fluorescent Ca2+ imaging in transfected HEK293 cells, CHH mutant; assay type: cell-based; conditions: secondary screening, 3 μM metal ion or complex
T2 construct: expressed in transfected cells; host or cells: HEK293
T2 sequence (P23385 19-1199 D322H/D324H/V405C): as the sequence (P23385 19-1199 E325C) above, with D304H, D306H, C307E, V387C counted along it

WT mGlu1 = target: T3, WT mGlu1 (Rattus norvegicus, UniProt P23385); assay: Fluorescent Ca2+ imaging (Fura-2) in transfected HEK293 cells, WT mGlu1; assay type: cell-based; conditions: at the concentration of the mutant's EC50 (1.5 µM Cu^2+; 0.44 µM Zn^2+)
T3 construct: expressed in transfected cells; host or cells: HEK293
T3 sequence (P23385 19-1199): as the sequence (P23385 19-1199 E325C) above, with C307E counted along it

mGlu1 D324H/E325C mutant = target: T4, mGlu1 D324H/E325C mutant (Rattus norvegicus, UniProt P23385, D324H/E325C); assay: Fluorescent Ca2+ imaging in transfected HEK293 cells, D324H/E325C mutant; assay type: cell-based; conditions: 1 μM CuCl2
T4 construct: expressed in transfected cells; host or cells: HEK293
T4 sequence (P23385 19-1199 D324H/E325C): as the sequence (P23385 19-1199 E325C) above, with D306H counted along it

mGlu1 Q73H/D324H mutant = target: T5, mGlu1 Q73H/D324H mutant (Rattus norvegicus, UniProt P23385, D324H/Q73H); assay: Fluorescent Ca2+ imaging in transfected HEK293 cells, Q73H/D324H mutant; assay type: cell-based; conditions: 1 μM CuCl2
T5 construct: expressed in transfected cells; host or cells: HEK293
T5 sequence (P23385 19-1199 Q73H/D324H): as the sequence (P23385 19-1199 E325C) above, with Q55H, D306H, C307E counted along it

mGlu1(N264H) mutant [2] = target: T6, mGlu1(N264H) mutant (Rattus norvegicus, UniProt P23385, N264H); assay: Fluorescent Ca2+ imaging in transfected HEK293 cells, N264H mutant; assay type: cell-based; conditions: for activation of N264H mutant (Δratio): heat map: 3 μM metal ion or complex
T6 construct: expressed in transfected cells; host or cells: HEK293
T6 sequence (P23385 19-1199 N264H): as the sequence (P23385 19-1199 E325C) above, with N246H, C307E counted along it

mGlu1 Q73A/E325C mutant = target: T7, mGlu1 Q73A/E325C mutant (Rattus norvegicus, UniProt P23385, E325C/Q73A); assay: Fluorescent Ca2+ imaging in transfected HEK293 cells, Q73A/E325C mutant; assay type: cell-based; conditions: 1 μM CuCl2, compared with E325C
T7 construct: expressed in transfected cells; host or cells: HEK293
T7 sequence (P23385 19-1199 Q73A/E325C): as the sequence (P23385 19-1199 E325C) above, with Q55A counted along it

mGlu1 E72A/E325C mutant = target: T8, mGlu1 E72A/E325C mutant (Rattus norvegicus, UniProt P23385, E325C/E72A); assay: Fluorescent Ca2+ imaging in transfected HEK293 cells, E72A/E325C mutant; assay type: cell-based; conditions: 1 μM CuCl2, compared with E325C
T8 construct: expressed in transfected cells; host or cells: HEK293
T8 sequence (P23385 19-1199 E72A/E325C): as the sequence (P23385 19-1199 E325C) above, with E54A counted along it

mGlu1(N264H) mutant [3] = target: T6, mGlu1(N264H) mutant; set-up: method as in Ojima et al., 2021; conditions: previously reported; ref Ojima et al., 2021; cited from earlier work
[4] = target: T9, mGlu1 V405H/D322C/D324H (HCH) mutant (Rattus norvegicus, UniProt P23385, D322C/D324H/V405H); assay: Fluorescent Ca2+ imaging in transfected HEK293 cells, HCH mutant; assay type: cell-based; conditions: for activation of HCH mutant (Δratio): secondary screening, 3 μM metal ion or complex
T9 construct: expressed in transfected cells; host or cells: HEK293
T9 sequence (P23385 19-1199 D322C/D324H/V405H): as the sequence (P23385 19-1199 E325C) above, with D304C, D306H, C307E, V387H counted along it

mGlu1 H55F/E325C mutant = target: T10, mGlu1 H55F/E325C mutant (Rattus norvegicus, UniProt P23385, E325C/H55F); assay: Fluorescent Ca2+ imaging in transfected HEK293 cells, H55F/E325C mutant; assay type: cell-based; conditions: 1 μM CuCl2, compared with E325C
T10 construct: expressed in transfected cells; host or cells: HEK293
T10 sequence (P23385 19-1199 H55F/E325C): as the sequence (P23385 19-1199 E325C) above, with H37F counted along it

[5] = target: T11, mGlu1 Q73H/D324H/E325C mutant (Rattus norvegicus, UniProt P23385, D324H/E325C/Q73H); assay: Fluorescent Ca2+ imaging in transfected HEK293 cells, Q73H/D324H/E325C mutant; assay type: cell-based; conditions: for activation of Q73H/D324H/E325C mutant (Δratio): primary screening, 3 μM metal ion or complex
T11 construct: expressed in transfected cells; host or cells: HEK293
T11 sequence (P23385 19-1199 Q73H/D324H/E325C): as the sequence (P23385 19-1199 E325C) above, with Q55H, D306H counted along it

mGlu1 Q73H/E325C mutant = target: T12, mGlu1 Q73H/E325C mutant (Rattus norvegicus, UniProt P23385, E325C/Q73H); assay: Fluorescent Ca2+ imaging in transfected HEK293 cells, Q73H/E325C mutant; assay type: cell-based; conditions: 1 μM CuCl2
T12 construct: expressed in transfected cells; host or cells: HEK293
T12 sequence (P23385 19-1199 Q73H/E325C): as the sequence (P23385 19-1199 E325C) above, with Q55H counted along it

[6] = target: T13, mGlu1 H55/P58H/N264C mutant (Rattus norvegicus, UniProt P23385, N264C/P58H); assay: Fluorescent Ca2+ imaging in transfected HEK293 cells, H55/P58H/N264C mutant; assay type: cell-based; conditions: primary screening, 3 μM metal ion or complex
T13 construct: expressed in transfected cells; host or cells: HEK293
T13 sequence (P23385 19-1199 P58H/N264C): as the sequence (P23385 19-1199 E325C) above, with P40H, N246C, C307E counted along it

[7] = target: T14, mGlu1 V405H/D322H/D324C (HHC) mutant (Rattus norvegicus, UniProt P23385, D322H/D324C/V405H); assay: Fluorescent Ca2+ imaging in transfected HEK293 cells, HHC mutant; assay type: cell-based; conditions: primary screening, 3 μM metal ion or complex
T14 construct: expressed in transfected cells; host or cells: HEK293
T14 sequence (P23385 19-1199 D322H/D324C/V405H): as the sequence (P23385 19-1199 E325C) above, with D304H, D306C, C307E, V387H counted along it

mGlu1 D322C/D324H mutant = target: T15, mGlu1 D322C/D324H mutant (Rattus norvegicus, UniProt P23385, D322C/D324H); assay: Fluorescent Ca2+ imaging in transfected HEK293 cells, D322C/D324H mutant; assay type: cell-based; conditions: compared with HCH mutant
T15 construct: expressed in transfected cells; host or cells: HEK293
T15 sequence (P23385 19-1199 D322C/D324H): as the sequence (P23385 19-1199 E325C) above, with D304C, D306H, C307E counted along it

mGlu1 V405H/D324H mutant = target: T16, mGlu1 V405H/D324H mutant (Rattus norvegicus, UniProt P23385, D324H/V405H); assay: Fluorescent Ca2+ imaging in transfected HEK293 cells, V405H/D324H mutant; assay type: cell-based; conditions: compared with HCH mutant
T16 construct: expressed in transfected cells; host or cells: HEK293
T16 sequence (P23385 19-1199 D324H/V405H): as the sequence (P23385 19-1199 E325C) above, with D306H, C307E, V387H counted along it

mGlu1 V405H/D322C mutant = target: T17, mGlu1 V405H/D322C mutant (Rattus norvegicus, UniProt P23385, D322C/V405H); assay: Fluorescent Ca2+ imaging in transfected HEK293 cells, V405H/D322C mutant; assay type: cell-based; conditions: compared with HCH mutant
T17 construct: expressed in transfected cells; host or cells: HEK293
T17 sequence (P23385 19-1199 D322C/V405H): as the sequence (P23385 19-1199 E325C) above, with D304C, C307E, V387H counted along it

Molecule | activation / metal selectivity of E325C mutant (Δratio) (mGlu1 E325C mutant) | activation of CHH mutant (Δratio) [1] | activation of WT mGlu1 in dose dependency (WT mGlu1) | activation of N264H mutant (Δratio) (mGlu1(N264H) mutant [2]) | activation of mGlu1(N264H) mutant (mGlu1(N264H) mutant [3]) | activation of HCH mutant (Δratio) [4] | activation of Q73H/D324H/E325C mutant (Δratio) [5] | activation of V405H/D322H/D324C (HHC) mutant (Δratio) [7] | other results
Pd-2,2′-bipyridine [Pd (bpy)] | not activated |  |  | selectively activated | selective activation | not activated at all; also recorded: insensitive | not activated | activated | activation of H55/P58H/N264C mutant (Δratio) [6]: activated; activation of N264H mutant by Pd(bpy) in the co-presence of Cu2+ or Zn2+ (mGlu1(N264H) mutant [2]; [Pd(bpy)] = 3 μM, [CuCl2] = 1 μM, [ZnCl2] = 3 μM): did not affect; cell-specific activation of N264H-expressing cells in mixed culture (mGlu1(N264H) mutant [2]; three HEK293 cell types on one coverslip, sequential perfusion 60 s, 3 μM Pd (bpy)): selectively activated
[Cd+2] [Cd^2+] |  |  |  |  | failed to activate | moderately |  |  | 
[Ni+2] [Ni^2+] |  | strongly activated |  |  | failed to activate | moderately | moderate sensitivity | showed sensitivity; also recorded: activated | 

The next lines start with results.

activation / metal selectivity of E325C mutant (Δratio) (mGlu1 E325C mutant) | activation of CHH mutant (Δratio) [1] | activation of WT mGlu1 in dose dependency (WT mGlu1) | activation of N264H mutant (Δratio) (mGlu1(N264H) mutant [2]) | Molecule | activation of mGlu1(N264H) mutant (mGlu1(N264H) mutant [3]) | activation of HCH mutant (Δratio) [4] | activation of Q73H/D324H/E325C mutant (Δratio) [5] | activation of V405H/D322H/D324C (HHC) mutant (Δratio) [7] | other results
high selectivity | strongly activated | not activated | not activated | [Cu+2] [Cu^2+, CuCl2] | failed to activate | not activated at all; also recorded: insensitive | strongly activated |  | Cu^2+-induced response (Δratio) of E325C single mutant (mGlu1 E325C mutant; 1 μM CuCl2): maintained; pEC50 (mGlu1 E325C mutant; HEK293 cells, E325C mutant, dose dependency, read-out: EC50 of activation (Δratio, [Ca2+]i)): 6.66; activation of E325C mutant by Cu^2+ in the co-presence of Pd (bpy) (mGlu1 E325C mutant; [CuCl2] = 1 μM, [Pd(bpy)] = 3 μM): impaired; cell-specific activation of E325C-expressing cells in mixed culture (mGlu1 E325C mutant; three HEK293 cell types on one coverslip, sequential perfusion 60 s, 1 μM CuCl2): selectively activated; Cu^2+-induced response (Δratio) of D324H/E325C mutant (mGlu1 D324H/E325C mutant): prominent Cu^2+-induced responses; Cu^2+-induced response (Δratio) of Q73H/D324H mutant (mGlu1 Q73H/D324H mutant): loss in sensitivity; sensitivity to Cu^2+ (Δratio) of Q73A/E325C mutant (mGlu1 Q73A/E325C mutant): slightly affected; Cu^2+-induced response (Δratio) of E72A/E325C mutant (mGlu1 E72A/E325C mutant): drastically decreased; Cu^2+-induced response (Δratio) of H55F/E325C mutant (mGlu1 H55F/E325C mutant): drastically decreased; pEC50 ([5]; HEK293 cells, Q73H/D324H/E325C mutant, dose dependency, read-out: EC50 of activation (Δratio, [Ca2+]i)): 5.82; Cu^2+-induced response (Δratio) of Q73H/E325C mutant (mGlu1 Q73H/E325C mutant): prominent Cu^2+-induced responses
 | strongly activated |  |  | [Pd+2] [Pd^2+] | failed to activate |  |  |  | 
not activated | strongly activated | not activated at all | not activated | [Zn+2] [Zn^2+, ZnCl2] | failed to activate | activated strongly |  |  | Zn^2+-induced response (Δratio) of D322C/D324H mutant (mGlu1 D322C/D324H mutant): significantly impaired; Zn^2+-induced response (Δratio) of V405H/D324H mutant (mGlu1 V405H/D324H mutant): significantly impaired; Zn^2+-induced response (Δratio) of V405H/D322C mutant (mGlu1 V405H/D322C mutant): significantly impaired; pEC50 ([4]; HEK293 cells, HCH mutant, dose dependency, read-out: EC50 of activation (Δratio, [Ca2+]i)): 6.36; activation of HCH mutant by Zn^2+ in the co-presence of Cu^2+ ([4]; [ZnCl2] = 3 μM, [CuCl2] = 1 μM): impaired; cell-specific activation of HCH-expressing cells in mixed culture ([4]; three HEK293 cell types on one coverslip, sequential perfusion 60 s, 3 μM ZnCl2): selectively activated
